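All cell lines were grown in 96-well plates and treated with compound for 48 hours. TGI denotes the concentration required for complete inhibition of growth.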
Tests used:
Assay in all cases: NCI tumour cell line growth inhibition, 48 h
HOP-18 NSCLC = system: HOP-18 NSCLC
NCI-H460 lung = system: NCI-H460 lung
SK-MEL-2 melanoma = system: SK-MEL-2 melanoma
HOP-62 NSCLC = system: HOP-62 NSCLC
SNB-19 CNS = system: SNB-19 CNS
OVCAR-3 ovarian = system: OVCAR-3 ovarian
EKVX NSCLC = system: EKVX NSCLC
MOLT-4 leukemia = system: MOLT-4 leukemia
NCI-H226 lung = system: NCI-H226 lung
HT29 colon = system: HT29 colon
SK-MEL-28 melanoma = system: SK-MEL-28 melanoma
SN12C renal = system: SN12C renal
NCI-H522 lung = system: NCI-H522 lung
COLO 205 colon = system: COLO 205 colon
SNB-75 CNS = system: SNB-75 CNS
RXF 393 renal = system: RXF 393 renal
UACC-62 melanoma = system: UACC-62 melanoma
ACHN renal = system: ACHN renal
A549 NSCLC = system: A549 NSCLC
SK-OV-3 ovarian = system: SK-OV-3 ovarian
HCT-15 colon = system: HCT-15 colon
UO-31 renal = system: UO-31 renal
DMS 114 small cell lung = system: DMS 114 small cell lung
U251 CNS = system: U251 CNS
A498 renal = system: A498 renal
DLD-1 colon = system: DLD-1 colon
OVCAR-8 ovarian = system: OVCAR-8 ovarian
TK-10 renal = system: TK-10 renal
OVCAR-5 ovarian = system: OVCAR-5 ovarian
M14 melanoma = system: M14 melanoma
786-0 renal = system: 786-0 renal
SF-295 CNS = system: SF-295 CNS
SF-539 CNS = system: SF-539 CNS
MALME-3M melanoma = system: MALME-3M melanoma
LOX IMVI melanoma = system: LOX IMVI melanoma
KM12 colon = system: KM12 colon
HCC-2998 colon = system: HCC-2998 colon
KM20L2 colon = system: KM20L2 colon
M19-MEL melanoma = system: M19-MEL melanoma
OVCAR-4 ovarian = system: OVCAR-4 ovarian
K-562 leukemia = system: K-562 leukemia
HL-60(TB) leukemia = system: HL-60(TB) leukemia
CCRF-CEM leukemia = system: CCRF-CEM leukemia
RPMI-8226 leukemia = system: RPMI-8226 leukemia
UACC-257 melanoma = system: UACC-257 melanoma
SNB-78 CNS = system: SNB-78 CNS
NCI-H23 lung = system: NCI-H23 lung
SF-268 CNS = system: SF-268 CNS
SW-620 colon = system: SW-620 colon
HCT-116 colon = system: HCT-116 colon
LXFL 529 NSCLC = system: LXFL 529 NSCLC
HS 578T breast = system: HS 578T breast
MDA-N = system: MDA-N
CAKI-1 renal = system: CAKI-1 renal
MCF7 breast = system: MCF7 breast
MDA-MB-435 = system: MDA-MB-435
MDA-MB-231 breast = system: MDA-MB-231 breast
BT-549 breast = system: BT-549 breast
SK-MEL-5 melanoma = system: SK-MEL-5 melanoma
IGROV1 ovarian = system: IGROV1 ovarian
T-47D breast = system: T-47D breast
NCI/ADR-RES ovarian = system: NCI/ADR-RES ovarian
PC-3 prostate = system: PC-3 prostate
DU-145 prostate = system: DU-145 prostate
SR leukemia = system: SR leukemia
HOP-92 NSCLC = system: HOP-92 NSCLC

O=C(N=Nc1c(O)[nH]c2ccccc12)c1ccccc1O
TGI (HOP-18 NSCLC): > 100 µM | TGI (NCI-H460 lung): > 100 µM | TGI (SK-MEL-2 melanoma): 63.6 µM | TGI (HOP-62 NSCLC): > 100 µM | TGI (SNB-19 CNS): > 100 µM | TGI (OVCAR-3 ovarian): > 100 µM | TGI (EKVX NSCLC): > 100 µM | TGI (MOLT-4 leukemia): > 100 µM | TGI (NCI-H226 lung): > 100 µM | TGI (HT29 colon): > 100 µM | TGI (SK-MEL-28 melanoma): > 100 µM | TGI (SN12C renal): > 100 µM | TGI (NCI-H522 lung): > 100 µM | TGI (COLO 205 colon): > 100 µM | TGI (SNB-75 CNS): 94.2 µM | TGI (RXF 393 renal): > 100 µM | TGI (UACC-62 melanoma): > 100 µM | TGI (ACHN renal): > 100 µM | TGI (A549 NSCLC): > 100 µM | TGI (SK-OV-3 ovarian): 46.6 µM | TGI (HCT-15 colon): > 100 µM | TGI (UO-31 renal): 79.9 µM | TGI (DMS 114 small cell lung): > 100 µM | TGI (U251 CNS): 72.2 µM | TGI (A498 renal): 94.6 µM | TGI (DLD-1 colon): > 100 µM | TGI (OVCAR-8 ovarian): > 100 µM | TGI (TK-10 renal): > 100 µM | TGI (OVCAR-5 ovarian): > 100 µM | TGI (M14 melanoma): > 100 µM | TGI (786-0 renal): > 100 µM | TGI (SF-295 CNS): > 100 µM | TGI (SF-539 CNS): > 100 µM | TGI (MALME-3M melanoma): > 100 µM | TGI (LOX IMVI melanoma): > 100 µM | TGI (KM12 colon): > 100 µM | TGI (HCC-2998 colon): > 100 µM | TGI (KM20L2 colon): > 100 µM | TGI (M19-MEL melanoma): > 100 µM | TGI (OVCAR-4 ovarian): > 100 µM | TGI (K-562 leukemia): > 100 µM | TGI (HL-60(TB) leukemia): > 100 µM | TGI (CCRF-CEM leukemia): > 100 µM | TGI (RPMI-8226 leukemia): > 100 µM | TGI (UACC-257 melanoma): > 100 µM | TGI (SNB-78 CNS): > 100 µM | TGI (NCI-H23 lung): 92 µM | TGI (SF-268 CNS): > 100 µM | TGI (SW-620 colon): > 100 µM | TGI (HCT-116 colon): > 100 µM | TGI (LXFL 529 NSCLC): > 100 µM

CC1=Nn2c(nc3sc4c(c3c2=O)CCCC4)SC1
TGI (NCI-H460 lung): > 100 µM | TGI (SK-MEL-2 melanoma): > 100 µM | TGI (HS 578T breast): > 100 µM | TGI (HOP-62 NSCLC): > 100 µM | TGI (SNB-19 CNS): > 100 µM | TGI (OVCAR-3 ovarian): > 100 µM | TGI (EKVX NSCLC): > 100 µM | TGI (MOLT-4 leukemia): > 94.6 µM | TGI (MDA-N): > 31.6 µM | TGI (CAKI-1 renal): > 100 µM | TGI (NCI-H226 lung): > 100 µM | TGI (HT29 colon): > 100 µM | TGI (SK-MEL-28 melanoma): > 100 µM | TGI (MCF7 breast): > 100 µM | TGI (SN12C renal): > 100 µM | TGI (NCI-H522 lung): > 100 µM | TGI (COLO 205 colon): > 100 µM | TGI (SNB-75 CNS): > 100 µM | TGI (RXF 393 renal): > 100 µM | TGI (UACC-62 melanoma): > 100 µM | TGI (ACHN renal): > 100 µM | TGI (A549 NSCLC): > 100 µM | TGI (SK-OV-3 ovarian): > 100 µM | TGI (HCT-15 colon): > 100 µM | TGI (UO-31 renal): > 100 µM | TGI (MDA-MB-435): > 100 µM | TGI (MDA-MB-231 breast): > 100 µM | TGI (U251 CNS): > 100 µM | TGI (A498 renal): > 100 µM | TGI (BT-549 breast): > 100 µM | TGI (OVCAR-8 ovarian): > 100 µM | TGI (SK-MEL-5 melanoma): > 100 µM | TGI (TK-10 renal): > 100 µM | TGI (OVCAR-5 ovarian): > 100 µM | TGI (M14 melanoma): > 100 µM | TGI (786-0 renal): > 100 µM | TGI (SF-295 CNS): > 100 µM | TGI (IGROV1 ovarian): > 100 µM | TGI (SF-539 CNS): > 100 µM | TGI (MALME-3M melanoma): > 100 µM | TGI (LOX IMVI melanoma): 53.7 µM | TGI (T-47D breast): > 100 µM | TGI (KM12 colon): > 100 µM | TGI (HCC-2998 colon): > 100 µM | TGI (NCI/ADR-RES ovarian): > 100 µM | TGI (OVCAR-4 ovarian): > 100 µM | TGI (K-562 leukemia): > 100 µM | TGI (PC-3 prostate): > 100 µM | TGI (HL-60(TB) leukemia): > 87.4 µM | TGI (DU-145 prostate): > 100 µM | TGI (SR leukemia): > 100 µM | TGI (CCRF-CEM leukemia): > 76.3 µM | TGI (RPMI-8226 leukemia): > 100 µM | TGI (HOP-92 NSCLC): > 100 µM | TGI (UACC-257 melanoma): > 100 µM | TGI (NCI-H23 lung): > 100 µM | TGI (SF-268 CNS): > 100 µM | TGI (SW-620 colon): > 100 µM | TGI (HCT-116 colon): > 100 µM

From PubChem BioAssay (NCI)
